Test in all cases: NCI tumour cell line growth inhibition, 48 h
Assay [1] relates to BT-549.
Assay [2] has as its system DLD-1.
Assay [3] concerns DMS-114.
The test system of assay [4] is HOP-18.
Assay [5] concerns KM-20L2.
For assay [6], the system named is LXFL 529.
In assay [7] the test system is SNB-78.
Assay [8] relates to XF498.
The subject of assay [9] is RXF 631.

We go through 60 compounds from ChEMBL document CHEMBL1201862, “PubChem BioAssay data set” (2004).

SMILES strings stand for the structures.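 Five concentrations, 48 hours, 96-well plates. GI50: concentration for 50% inhibition of growth.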 Activity calls are given as the source filed them. Cut-off read from the data, not from the text of the source: active = GI50 up to about 1.1 µM and inactive = higher. Bounds are passed on as bounds.

For the compound `Cc1cc(Cc2c(F)c(F)c(C(c3cc(C)no3)c3c(F)c(F)c(F)c(F)c3F)c(F)c2F)on1` (stereo not given), in assay [1], the GI50 was > 100 µM (inactive).

Turning to `CC[C@@H](/C=C\CCC(=O)C[C@H](O)CCC=C(C)C)O[Si](C(C)C)(C(C)C)C(C)C`, the GI50 in assay [1] is > 100 µM (inactive).

As to `CC(NC(=O)C1(N)CCCC1)C(=O)O` (stereo not given), the GI50 in assay [1] is > 100 µM (inactive).

In the case of `Nc1ncnc2c1ccn2C/C=C/CO`, the GI50 in assay [1] is > 100 µM (inactive).

`CN(C)CCNC(=O)c1cc2ccccc2c2nc3ccccc3nc12`: the GI50 in [2] was 0.447 µM (active); in [3], 0.83 µM (active); in [4], 5.82 µM (inactive); in assay [5], 0.946 µM (active); in assay [6] it was 1.43 µM (inactive); in assay [7] it was 3.55 µM (inactive).

Turning to `N=C(N)N/N=C/c1c(-c2cc([N+](=O)[O-])c(Cl)cc2Cl)nc2n1CCS2`, in assay [1], the GI50 is 3.18 µM (inactive).

In the case of `CC[C@H]1CC(=O)c2c(cc3c(c2O)C(=O)c2ccccc2C3=O)[C@@]1(C#N)C(=O)OC(C)(C)C`, the GI50 was 2.33 µM (inactive) in assay [2]; 3.21 µM (inactive) in assay [3]; 3.52 µM (inactive) in assay [4]; 4.08 µM (inactive) in assay [5]; 3.25 µM (inactive) in assay [6]; 4.89 µM (inactive) in [7]. Further, the GI50 in assay [8] was 2.74 µM (inactive).

Turning to `O=C1CC[C@H](NC(=O)Cc2ccccc2)C(=O)N1` [ANTINEOPLASTON A10], the GI50 in assay [2], in [4], in assay [5], in [6] and in assay [8] was > 1250 µM (inactive) throughout.

For the compound `CCCCCCN1CCc2c(C)c(C#N)c3nc4ccccc4n3c21`, the GI50 in [1] is 65.3 µM (inactive).

For `COc1cccc(/C=C/C2=NN(c3cccc(S(=O)(=O)O)c3)C3(C2)SCC(=O)N3c2nc3ccccc3s2)c1` (stereo not given), the GI50 in [1] is 53 µM (inactive).

Take `N#Cc1c2ccc([N+](=O)[O-])cc2c(=O)n2c1sc1ccc(C(F)(F)F)cc12`: in [1], the GI50 is > 100 µM (inactive).

On to `COCCOC(=O)NCn1cc(-c2ccccc2)nn1`, for which the GI50 in assay [1] was > 100 µM (inactive).

In the case of `COC(=O)c1ccc(C=C(C#N)C#N)cc1`, the GI50 in assay [2] is 22.2 µM (inactive); in assay [3], 19.2 µM (inactive); in assay [4], 36.1 µM (inactive); in assay [5], 30.6 µM (inactive); in assay [6] it was 18.3 µM (inactive); in [9], 28.2 µM (inactive).

Turning to `CN(C(=O)Cc1cc(Cl)c(Cl)cc1NC(=O)CN)[C@H]1CCCC[C@@H]1N1CCCC1`, the GI50 in [1] is 35.1 µM (inactive).

As to `COc1cc(C2c3cc4c(cc3C3OC[C@@H]2C3CO)OCO4)cc(OC)c1OC` (stereo not given in full), in [1], the GI50 is 29.9 µM (inactive).

As for `CCOC(=O)CCC(NC(=O)c1ccc(OCc2ccc3nc(OC)c(OC)nc3c2)cc1)C(=O)OCC` (stereo not given), the GI50 in assay [1] is 43.3 µM (inactive).

For the compound `BrCc1ccc2ccc3ccc(CBr)nc3c2n1`, the GI50 in assay [3] was 3.85 µM (inactive); in assay [4] it was 1.83 µM (inactive); in [5], 3.28 µM (inactive); in assay [6], 1.75 µM (inactive); in assay [7], 2.13 µM (inactive).

Take `Cc1cc(=O)oc2cc(OS(C)(=O)=O)ccc12`: the GI50 in [1] was > 100 µM (inactive).

Regarding `N#Cc1c2c(c(Nc3cccc(C(F)(F)F)c3)n3c1nc1ccccc13)CCCC2`, in assay [1], the GI50 was 30.1 µM (inactive).

On to `COc1ccc(/C=C2\C(=O)Nc3ccccc32)cc1OC`, for which the GI50 in assay [4] was > 100 µM (inactive); in assay [5] it was > 100 µM (inactive); in assay [6], 58.1 µM (inactive); in [7], 37.7 µM (inactive); in assay [8], > 100 µM (inactive).

For `CC(C)C(OC(=O)c1ccc(NCC2=CC(=O)C=CC2=O)cc1)C(C)C`, the GI50 in [1] was 3.52 µM (inactive).

Turning to `Cc1cn([C@@H]2O[C@H](CO)[C@@H](O)[C@@H]2O)c(=O)[nH]c1=O`, the GI50 in assay [1] was > 1000 µM (inactive).

`CN1C=Cc2nccc3cc4c(c1c23)OCO4`: in [1], the GI50 is 1.87 µM (inactive).

On to `NC(=O)CC1OC(=O)Cc2cc3c(c(O)c21)C(=O)c1c(O)cccc1C3=O` (stereo not given), for which the GI50 in [1] was > 100 µM (inactive).

Turning to `c1ccc(COC2NCCN2Cc2ccccc2)cc1` (stereo not given), in assay [1], the GI50 was > 100 µM (inactive).

As for `Nc1ccccc1C(=O)/C=C/c1c(O)ccc2ccccc12`, the GI50 in assay [2], in assay [3], in assay [4], in assay [5], in assay [6] and in assay [9] was > 100 µM (inactive) in each case. In assay [7], the GI50 is > 100 µM (inactive).

With `CN1C(=O)[C@H](c2c[nH]c3ccccc23)[C@H](c2c[nH]c3ccccc23)C1=O`, in [1], the GI50 is 19.1 µM (inactive).

For the compound `COc1cc(Cl)c(CC(=O)c2c[nH]c3ccccc23)cc1OC`, the GI50 in assay [1] was 28.2 µM (inactive).

In the case of `C[n+]1c2ccccc2n2c3ccccc3c(NCCCN3CCOCC3)c(C#N)c21`, the GI50 in assay [1] is 12 µM (inactive).

On to `COc1ccc(C(=O)C(c2ccc(OCc3ccccc3)cc2)c2ccc(OCc3ccccc3)cc2)cc1`, for which the GI50 is > 100 µM (inactive) in assay [2]; > 100 µM (inactive) in assay [3]; > 100 µM (inactive) in assay [5]; 2.67 µM (inactive) in assay [9]; > 100 µM (inactive) in assay [7]; > 100 µM (inactive) in [8].

With `COc1ccc(OCC(=N/NC(=O)c2ccncc2)/N=C/c2cccnc2)cc1`, the GI50 in assay [1] was > 100 µM (inactive).

As for `CC(C)(C)OC(=O)c1ccc(NCc2cc(O)ccc2O)cc1`, the GI50 in assay [1] is 2 µM (inactive).

For the compound `O=C1c2ccccc2C2(c3ccc(Cl)cc3)N[C@@H]3CCCC[C@@H]3N12` (stereo not given in full), the GI50 in assay [1] is > 100 µM (inactive).

Turning to `CC(=N\N=C\c1ccccn1)/C(C)=N/N=C/c1ccccn1`, the GI50 in assay [1] was > 100 µM (inactive).

With `COC1=C(C)C(=O)c2c(c(COC(N)=O)c3n2CC(OC(C)=O)C3OC(C)=O)C1=O` (stereo not given), in assay [1], the GI50 was 0.296 µM (active).

With `O=C1CCN2C(=N1)Sc1ccccc12`, the GI50 in assay [1] is > 100 µM (inactive).

For the compound `CCOC(=O)C(NC(=O)c1ccccc1)(N1CCN(c2cc3c(cc2F)c(=O)c(C(=O)O)cn3C2CC2)CC1)C(F)(F)F` (stereo not given), the GI50 in assay [1] was 21.8 µM (inactive).

For `COc1ccc(C(=C(C#N)C#N)c2ccc(OC)cc2)cc1`, the GI50 is 77.1 µM (inactive) in assay [3], > 100 µM (inactive) in assay [5], > 100 µM (inactive) in assay [6] and > 100 µM (inactive) in [7].

Consider `O=C(c1ccco1)N1CCCN(C(=O)c2ccco2)C1=S`, for which the GI50 in assay [1] is > 100 µM (inactive).

For `Cn1c2ccccc2c2c(-c3ccccc3)[n+]3ccccc3nc21`, in [1], the GI50 is 23 µM (inactive).

As for `Nc1ccc2nc(Nc3ccc(F)cc3)cnc2c1`, the GI50 in assay [2] is > 100 µM (inactive); in assay [3] it was 34.4 µM (inactive); in [8], > 100 µM (inactive).

Consider `O=C(N/C(=C\c1ccc(Cl)cc1)c1nc2ccccc2[nH]1)c1ccccc1`, for which the GI50 in assay [2] is 15.8 µM (inactive); in [4] it was 13.7 µM (inactive); in assay [5], 2.44 µM (inactive); in [6], 15.3 µM (inactive); in assay [7], 29.3 µM (inactive); in assay [8] it was 18.6 µM (inactive).

Consider `C=CCC12CCC(=O)[C@@]1(C)CC=C(O)C2=O` (stereo not given in full), for which the GI50 in [2], in assay [3], in assay [4], in [5], in [6] and in assay [7] was > 100 µM (inactive) each time.

Take `Cc1cccc(/C=N/NC(=S)N2CCCCCC2)n1`: the GI50 in assay [1] was 0.512 µM (active).

`CCOC(=O)NC/C=C/COC1CCCCO1` (stereo not given): the GI50 in assay [2], in [3], in assay [4], in assay [5], in assay [6] and in [7] was > 100 µM (inactive) throughout.

With `O=[N+]([O-])c1cc2oc(CSc3ccccc3)nc2cc1Cl`, the GI50 in assay [1] was 23.4 µM (inactive).

For `COC(=O)c1cc2c(=O)n(C)c3ccccc3n2c1C(=O)OC`, the GI50 was 30.1 µM (inactive) in assay [2]; > 100 µM (inactive) in assay [3]; 53.3 µM (inactive) in [5]; > 100 µM (inactive) in assay [6]; > 100 µM (inactive) in assay [9]; > 100 µM (inactive) in [7]. The GI50 in [8] is 20.4 µM (inactive).

Regarding `CC(CSc1nc2c(c(=N)n1-c1ccccc1)c(=S)n(-c1ccccc1)c(=S)n2-c1ccccc1)CN(C)C` (stereo not given), the GI50 in [1] is 1.78 µM (inactive).

On to `CC1=CC=C2c3ccccc3C=CN2C(=O)C1`, for which, in [1], the GI50 was 18.9 µM (inactive).

In the case of `CN(c1ccccc1Cl)S(=O)(=O)c1ccccc1`, the GI50 in assay [1] is 56.2 µM (inactive).

For the compound `O=[N+]([O-])c1ccc(CSCc2ccc(Cl)cc2)cc1`, in [1], the GI50 was > 100 µM (inactive).

Consider `CC(C)(C)OC(=O)NCCCC(=O)NC1(c2cc3ccccc3s2)CCCCC1`, for which the GI50 in assay [1] is 15.1 µM (inactive).

As for `Cc1c(N/C=C(\C#N)C(=O)c2ccc(Cl)cc2)c(=O)n(-c2ccccc2)n1C`, the GI50 in assay [1] was 46.6 µM (inactive).

On to `CCN1C2=NC(=O)N(C)C(=O)C2(Cl)C(C(SC)S(=O)(=O)c2ccc(C)cc2)c2ccccc21` (stereo not given), for which the GI50 is 33.4 µM (inactive) in [2]; 41.1 µM (inactive) in [3]; 57.8 µM (inactive) in assay [5]; 23.3 µM (inactive) in assay [6]; 21.4 µM (inactive) in assay [9]; 24.2 µM (inactive) in assay [7]. The GI50 in [8] was 49.5 µM (inactive).

For `O=[As](O)(O)c1ccc(/N=N/c2ccc(O)cc2)cc1`, the GI50 in assay [1] is > 100 µM (inactive).

Regarding `CCOC(=O)C#Cc1ccc(C#CC(=O)OCC)cc1`, the GI50 in assay [1] is 3.95 µM (inactive).

As to `CC1=C(O)C(=O)C[C@]2(C)[C@H]3CC=C4[C@@H]5CC(C)(C)CC[C@@H]5C(=O)[C@H](O)[C@@]4(C)[C@]3(C)CC[C@@H]12`, in assay [1], the GI50 is > 50 µM (inactive).

As for `COc1ccc2c(c1)O[C@@H]1c3ccc(OC)cc3OC[C@H]21`, the GI50 in assay [2] is 45.2 µM (inactive); in [3], 27.5 µM (inactive); in assay [6], 28.8 µM (inactive); in [7] it was 33.8 µM (inactive); in assay [8], 25.6 µM (inactive).

Take `O=C(c1ccc(Cl)cc1)N(C(=S)OCCOc1ccccc1)c1ccccc1`: in assay [1], the GI50 was 20.2 µM (inactive).

For `C=C1OC(c2ccccc2NC)=NC12CCCCC2`, the GI50 in assay [1] is > 100 µM (inactive).
